Data set [1] relates to LnCaP and MCF-7 cells. Description: Trypan blue exclusion viability assay, Tables 2-4. The format is cell-based. The settings on record: 5.0 μM compound, 48 hours, read-out: % viable LnCaP and MCF-7 cells. The method, then:
(§1) The effect of the styryl sulfones on the growth of normal and tumor cells of breast and prostate was examine utilizing four cell lines, NIH3T3, MCF-7, BT-20 and LnCap. NIH/3T3 cells represent normal fibroblasts while LnCap is an androgen-dependent prostate tumor cell line. MCF-7 is an estrogen-responsive breast tumor cell line, while BT-20 is an estrogen-unresponsive breast tumor cell line. MCF-7 and BT-20 were grown in Dulbecco's modified Eagle's medium (DMEM) containing 10% fetal bovine serum supplemented with penicillin and streptomycin. LnCaP were cultured in RPMI with 10% fetal bovine serum containing penicillin and streptomycin. NIH3T3 cells were grown in DMEM containing 10% calf serum supplemented with penicillin and streptomycin. All cell cultures were maintained at 37° C. in a humidified atmosphere of 5% CO2.
Cells were treated with test compound at 2.5 μM or 5.0 μM concentration and cell viability was determined after 48 hours by the Trypan blue exclusion method. The compounds identified in Tables 2, 3 and 4 inhibited cell growth and induced cell death, to varying degrees. The tables list the percent viable LnCap and MCF-7 cells treated with 5.0 μM compound.

The nature of data set [2]: Trypan blue exclusion viability assay, normal fibroblasts. The format is cell-based. The following applies: mouse, NIH3T3 cells (normal fibroblasts). The arrangement: viability at 48 h: dose or concentration left out as unconfirmed. The method, then:
as §1
The compounds identified in Tables 2, 3 and 4 inhibited cell growth and induced cell death, to varying degrees. The tables list the percent viable LnCap and MCF-7 cells treated with 5.0 μM compound.
The percentage of living cells was determined by Trypan blue exclusion. The control cells were treated with DMSO to determine the effect of solvent on cells. […] Under these conditions, only 2-3% of NIH3T3 cells were non-viable at both the concentrations. […] After 48 hours incubation, 60-75% of the LnCaP, BT-20 and MCF-7 cells were dead at […] FRI-20 concentration, whereas more than 90% of NIH3T3 cells were viable (FIG. 2A).

The subject of data set [3] is BT20. Description: GI50 growth inhibition, trypan blue cell count. The settings on record: Homo sapiens, BT-20; breast, estrogen receptor negative; 96 hours after addition. The format is cell-based, human. Here is the method: (§2) The human carcinoma cell lines listed in Table 5 below were purchased from ATCC and grown in an appropriate growth medium containing 10% fetal bovine serum (FBS) and antibiotics. The cells were plated at a cell density of 1.0×10^5 cells per […] in 6-well dishes. The cells were treated with various concentrations of (E)-fluorostyryl-4-bromobenzylsulfone 24 hours after plating in a total volume of 1 ml of medium using dimethylsulfoxide (DMSO) as a solvent for the compound. Control cells were treated with DMSO alone. The total number of viable cells was determined 96 hours after the addition of the compound by counting the cells in each well using a hemacytometer after trypan blue staining (viable cells exclude the stain). The counts were done in duplicate and the average was graphed in FIG. 8 as a percentage of the non-treated control group.

Data set [4] has as its system DLD-1. Briefly: GI50 growth inhibition, trypan blue cell count. The settings on record: Homo sapiens, DLD-1; cob-rectal; 96 hours after addition. Type of data set: cell-based, human. The method, then:
as §2

Data set [5] relates to DU145. Briefly: GI50 growth inhibition, trypan blue cell count. The format is cell-based, human. The settings on record: Homo sapiens, DU-145; prostate, androgen receptor negative; 96 hours after addition. Here is the method: as §2
Data set [6] concerns H157. Description: GI50 growth inhibition, trypan blue cell count. The following applies: Homo sapiens, NCI-H157; lung, non-small cell; 96 hours after addition. The format is cell-based, human. The method, then: as §2
Data set [7] concerns MIA-PaCa-2. Briefly: GI50 growth inhibition, trypan blue cell count. The format is cell-based, human. The settings on record: Homo sapiens, MIA PaCa-2; pancreatic; 96 hours after addition. Here is the method:
as §2

Data set [8] concerns U87. Description: GI50 growth inhibition, trypan blue cell count. Type of data set: cell-based, human. The settings on record: Homo sapiens, U-87 MG; glioblastoma; 96 hours after addition. Here is the method:
as §2

The subject of data set [9] is SK-MEL-28. Description: GI50 growth inhibition, trypan blue cell count. Type of data set: cell-based. The settings on record: Homo sapiens, melanoma, 96 hours after addition. Here is the method: as §2
The test system of data set [10] is LnCaP, BT-20 and MCF-7 cells. Briefly: Trypan blue exclusion viability/proliferation assay (dose and time course). The following applies: 2.5 mM (FIG. 1A) and 5.0 mM (FIG. 1B), 48 hours of treatment. Type of data set: cell-based.

One may read the GI50 as the concentration that inhibits growth by half. Consider `O=S(=O)(/C=C/c1ccc(F)cc1)Cc1ccc(Br)cc1` [Example 15, E-4-fluorostyryl 4-bromobenzyl Sulfone], for which the viability at 5 µM in [1] came out at 7%. The viability at 48 h, 5 µM in data set [2] (5 μM) is above 80%. Moreover, the viability at 48 h in [2] (48 hours incubation, read-out: viable NIH3T3 cells) was above 80%. In addition, the GI50 in [3] is 1000 to 2000 nM; in [4], below 1000 nM; in data set [5] it was 2500 nM; in [6], below 1000 nM; in data set [7], below 1000 nM; in data set [8], 1000 to 2000 nM. Also, the GI50 in data set [9] is 1000 to 2000 nM. Further, in data set [10], the “inhibition of growth and induction of death of LnCaP, BT-20 and MCF-7 cells” value is “substantially inhibit the growth and induce the death”.
